These results are taken from ChEMBL document CHEMBL1201862, “PubChem BioAssay data set” (2004).

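Method: 48-hour compound exposure of cells in 96-well plates, five concentrations, linear interpolation of endpoints. Abbreviation: GI50, concentration required for 50% inhibition of growth.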 Activity calls are given as the source filed them. No stated cut-off is given here; in the data, active = GI50 up to about 1.1 µM and inactive = higher.

Among the test systems are MDA-MB-435; HOP-62; SK-MEL-5; SF-268; PC-3; NCI-H460; HCT-116; HCT-15; HCC 2998; OVCAR-8; MDA-N; U-251; A549; SK-MEL-2; NCI-H226; K562; SK-OV-3; TK-10; BT-549.
Assay in all cases: NCI-60 cell line screen, 48 h

As for `CCOP(=O)(OCC)/C(=C\n1ccc(=O)[nH]c1=S)C(=O)OC`, the GI50 in the assay on MDA-MB-435, in the assay with HOP-62, in the assay with SK-MEL-5, with SF-268, with PC-3 and in the assay with NCI-H460 was > 100 µM (inactive) each time. The GI50 in the assay with HCT-116 was > 100 µM (inactive); in the assay on HCT-15 it was above 100 µM; in the assay on HCC 2998, > 100 µM (inactive); in the assay with OVCAR-8, > 100 µM (inactive); with MDA-N it was > 100 µM (inactive); in the assay with U-251, > 100 µM (inactive). Further, the GI50 in the assay with A549, with SK-MEL-2, in the assay with NCI-H226, in the assay on K562 and in the assay with SK-OV-3 was > 100 µM (inactive) throughout.
Regarding `CC(=O)N/N=C1\CC(C)(C)C2CCC1C2` (stereo not given), the GI50 was > 100 µM (inactive) in the assay on HOP-62; > 100 µM (inactive) in the assay on SK-MEL-5; > 100 µM (inactive) in the assay on SF-268; > 100 µM (inactive) in the assay on NCI-H460; > 100 µM (inactive) in the assay with HCT-116; above 100 µM in the assay on HCT-15. Moreover, the GI50 with OVCAR-8, in the assay on U-251, with A549, in the assay with SK-MEL-2, in the assay with TK-10 and in the assay with K562 was > 100 µM (inactive) each time. For the same molecule, the GI50 in the assay on SK-OV-3 was > 100 µM (inactive).
Turning to `O=C(Nc1cccc([N+](=O)[O-])c1)c1nnn(-c2cccc([N+](=O)[O-])c2)c1O`, the GI50 in the assay with MDA-MB-435, in the assay with HOP-62, with SK-MEL-5, with SF-268, in the assay on PC-3 and in the assay with HCT-116 was > 100 µM (inactive) each time. For the same molecule, the GI50 with OVCAR-8, in the assay with MDA-N, in the assay on U-251, in the assay on A549, in the assay on SK-MEL-2 and in the assay with NCI-H226 was > 100 µM (inactive) in each case. For the same molecule, the GI50 in the assay on K562 and with SK-OV-3 was > 100 µM (inactive) in each case.
Regarding `O=[N+]([O-])c1ccc(C2CC(c3ccc(NCc4nc5ccccc5[nH]4)cc3)=NO2)cc1` (stereo not given), the GI50 in the assay with HOP-62 is > 100 µM (inactive); in the assay on SK-MEL-5, 9.04 µM (inactive); in the assay with SF-268, > 100 µM (inactive); in the assay with NCI-H460, 15.6 µM (inactive); in the assay with HCT-116, 27.4 µM (inactive); in the assay on HCT-15, 30.7 µM. Moreover, the GI50 in the assay on HCC 2998 is 85.5 µM (inactive); in the assay with OVCAR-8 it was 37.7 µM (inactive); in the assay with U-251, 36.4 µM (inactive); in the assay on A549, 98.2 µM (inactive); in the assay on SK-MEL-2 it was > 100 µM (inactive); in the assay on TK-10 it was 89.3 µM (inactive). Also, the GI50 is 21.1 µM (inactive) in the assay with K562 and > 100 µM (inactive) in the assay on SK-OV-3.
Turning to `N#CCCN(c1ccc(/C=N/c2ccccc2)cc1)S(=O)(=O)c1ccccc1`, the GI50 in the assay with HOP-62 was 23.7 µM (inactive); with SK-MEL-5, > 100 µM (inactive); in the assay with SF-268, > 100 µM (inactive); with HCT-116, > 100 µM (inactive); with HCC 2998, 5.22 µM (inactive); with OVCAR-8, > 100 µM (inactive). Further, the GI50 is > 100 µM (inactive) in the assay with A549; > 100 µM (inactive) in the assay on SK-MEL-2; > 100 µM (inactive) in the assay with NCI-H226; > 100 µM (inactive) in the assay on TK-10; 2.97 µM (inactive) with K562; > 100 µM (inactive) with SK-OV-3.
On to `COC(=O)C1=C(CCC[C@H](C)O[Si](C)(C)C(C)(C)C)NC(=O)N2[C@@H](CCO)CC[C@H]12`, for which the GI50 is 17.7 µM (inactive) in the assay on MDA-MB-435; 14.1 µM (inactive) in the assay on HOP-62; 7.82 µM (inactive) in the assay on SK-MEL-5; 14.6 µM (inactive) in the assay on SF-268; 20.3 µM (inactive) in the assay on NCI-H460; 4.18 µM (inactive) in the assay on HCT-116. For the same molecule, the GI50 was 15 µM in the assay on HCT-15; 15.5 µM (inactive) in the assay with OVCAR-8; 15 µM (inactive) with BT-549; 15.5 µM (inactive) in the assay on U-251; 12.3 µM (inactive) in the assay with A549; 14.6 µM (inactive) with NCI-H226. Besides, the GI50 in the assay with TK-10 is 18.6 µM (inactive); in the assay on K562, 6.92 µM (inactive); in the assay with SK-OV-3, 15.8 µM (inactive).
Regarding `O=C1c2ccccc2-c2nc3ccc(O)cc3n21`, the GI50 in the assay with HOP-62, in the assay on SK-MEL-5, in the assay on SF-268, with PC-3, in the assay with NCI-H460 and in the assay on HCT-116 was > 100 µM (inactive) throughout. Besides, the GI50 with HCT-15 is above 100 µM; with HCC 2998, > 100 µM (inactive); with OVCAR-8 it was > 100 µM (inactive); with BT-549 it was > 100 µM (inactive); with MDA-N, > 100 µM (inactive); with U-251, > 100 µM (inactive). Also, the GI50 with A549, in the assay with SK-MEL-2, in the assay on NCI-H226, with TK-10, with K562 and with SK-OV-3 was > 100 µM (inactive) each time.
On to `CCOC(=O)/C(Br)=C1/OC(=O)c2ccccc2-c2ccccc21.CCOC(=O)/C(Br)=C1\OC(=O)c2ccccc2-c2ccccc21`, for which the GI50 is 18.5 µM (inactive) in the assay with HOP-62; 17.5 µM (inactive) with SK-MEL-5; 30.7 µM (inactive) in the assay on SF-268; 17.7 µM (inactive) in the assay with HCT-116; 19.6 µM with HCT-15; 21 µM (inactive) in the assay with HCC 2998. Besides, the GI50 in the assay with OVCAR-8 is 23.1 µM (inactive); in the assay with U-251, 23.2 µM (inactive); with A549, 26.3 µM (inactive); in the assay on SK-MEL-2, 18.5 µM (inactive); in the assay on NCI-H226, 27.3 µM (inactive); with TK-10 it was 21.6 µM (inactive). Moreover, the GI50 was 4.3 µM (inactive) in the assay on K562 and 36.2 µM (inactive) in the assay on SK-OV-3.
Consider `COc1cccc(/C=C2/Sc3scc(-c4ccccc4)[n+]3C2=O)c1O`, for which the GI50 is 8.65 µM (inactive) in the assay on MDA-MB-435; 23.8 µM (inactive) in the assay with HOP-62; 14.4 µM (inactive) in the assay with SK-MEL-5; 41.2 µM (inactive) in the assay on SF-268; 32.1 µM (inactive) with PC-3; 17.3 µM (inactive) in the assay on NCI-H460. In addition, the GI50 is 14.9 µM (inactive) with HCT-116; 13.6 µM in the assay on HCT-15; 16.6 µM (inactive) in the assay with HCC 2998; 17.5 µM (inactive) in the assay with OVCAR-8; 21.7 µM (inactive) in the assay with BT-549; 19.6 µM (inactive) in the assay on U-251. Moreover, the GI50 in the assay with A549 was 38.8 µM (inactive); with SK-MEL-2 it was 23.3 µM (inactive); in the assay with NCI-H226, 19.4 µM (inactive); with TK-10, 31 µM (inactive); in the assay with SK-OV-3, 22.3 µM (inactive).
Regarding `CCOC(=O)/C=C(\C)Sc1cc(O)c2ccccc2c1O`, the GI50 in the assay with MDA-MB-435 was 2.65 µM (inactive); in the assay on HOP-62, 20.2 µM (inactive); in the assay on SK-MEL-5, 12.6 µM (inactive); with SF-268, 11 µM (inactive); in the assay on PC-3, 26.4 µM (inactive); in the assay on NCI-H460, 19.5 µM (inactive). In addition, the GI50 in the assay with HCT-116 was 6.47 µM (inactive); in the assay with HCT-15 it was 17.4 µM; in the assay with HCC 2998, 8.97 µM (inactive); in the assay on OVCAR-8, 16.5 µM (inactive); in the assay with BT-549, 22 µM (inactive); with U-251, 20.3 µM (inactive). In addition, the GI50 was 28.1 µM (inactive) in the assay on A549; 20.9 µM (inactive) in the assay with SK-MEL-2; 25.9 µM (inactive) in the assay with NCI-H226; 23.7 µM (inactive) in the assay on TK-10; 5.51 µM (inactive) in the assay with K562; 34.4 µM (inactive) in the assay with SK-OV-3.
Regarding `CCOC(=O)c1c(SC(=O)c2cc(OC)c(OC)c(OC)c2)n(-c2ccccc2)c(=S)n(-c2ccccc2)c1=O`, the GI50 with MDA-MB-435, with HOP-62, in the assay on SF-268, in the assay on PC-3, with NCI-H460 and in the assay on HCT-116 was > 100 µM (inactive) each time. In addition, the GI50 with HCT-15 was above 100 µM; in the assay with HCC 2998, > 100 µM (inactive); with OVCAR-8, > 100 µM (inactive); with MDA-N it was > 100 µM (inactive); in the assay on U-251 it was > 100 µM (inactive); in the assay with A549, > 100 µM (inactive). Also, the GI50 in the assay with NCI-H226, in the assay on TK-10, in the assay with K562 and with SK-OV-3 was > 100 µM (inactive) in each case.
As for `OCC(O)C(O)C(C=NNc1ncnc2ccc(Br)cc12)=NNc1ncnc2ccc(Br)cc12` (stereo not given), the GI50 is 3.38 µM (inactive) in the assay with MDA-MB-435; 2.64 µM (inactive) in the assay on HOP-62; 0.968 µM (active) with SK-MEL-5; 1.29 µM (inactive) in the assay on SF-268; 4.35 µM (inactive) with PC-3; 0.358 µM (active) in the assay with HCT-116. The GI50 with OVCAR-8 was 0.533 µM (active); in the assay on MDA-N, 3.63 µM (inactive); in the assay on U-251, 1.75 µM (inactive); with A549 it was 2.88 µM (inactive); in the assay on SK-MEL-2 it was 2.3 µM (inactive); in the assay on NCI-H226, 1.67 µM (inactive). In addition, the GI50 in the assay with TK-10 is 8.45 µM (inactive); in the assay with K562, 2.25 µM (inactive); in the assay on SK-OV-3, 1.85 µM (inactive).
As for `C[C@@H](Br)[C@@H]1CC[C@H]2c3[nH]c4ccccc4c3CCN2C1`, the GI50 was 16.3 µM (inactive) in the assay with MDA-MB-435; 18.6 µM (inactive) in the assay on HOP-62; 15.9 µM (inactive) in the assay on SK-MEL-5; 26.8 µM (inactive) in the assay with SF-268; 22.4 µM (inactive) with PC-3; 22.5 µM (inactive) in the assay with NCI-H460. Also, the GI50 in the assay with HCT-15 is 17.5 µM; in the assay on HCC 2998, 16 µM (inactive); in the assay with OVCAR-8 it was 26.9 µM (inactive); in the assay with MDA-N, 19.4 µM (inactive); in the assay on U-251 it was 21.5 µM (inactive); in the assay on A549, 34.4 µM (inactive). Besides, the GI50 was 20.6 µM (inactive) with SK-MEL-2; 28.6 µM (inactive) in the assay on NCI-H226; 31.7 µM (inactive) with TK-10; 15.5 µM (inactive) in the assay with K562; 24.7 µM (inactive) with SK-OV-3.
